Data reported in patent US20200360455A1 (priority 2018, published 2020).

System: Old mice
Assay: Wire hang test
Type: in vivo, mouse
Details: creatine 120 mg/kg
Method: The test was performing using a wire having a diameter of 2 mm installed at a height of 25 cm. Each mouse was placed on the wire using only the front legs, and the time of hanging without falling was measured. The time when the mouse was suspended and then dropped was measured and the test was conducted for a maximum of 120 seconds. In this way, each mouse was repeated 3 times at approximately 20 minute intervals. The results of each mouse were analyzed for the average value of the first and longest hanging time in three trials. […] In addition, creatine 120 mg/kg (creatine-120) was administered to mice as a positive control, and the test was conducted under the same conditions.

## CN(CC(=O)O)C(=N)N [creatine]
  wire hang effect of positive control vs aging mouse group: more effective than the aging mouse group
